Data on 2 compounds can be found in US20090208408A1, “USE OF VCAM-1 LIGANDS FOR DETECTING AND/OR TREATING CARDIOVASCULAR DISEASES” (UNIVERSITE JOSEPH FOURIER, priority 2004, published 2009).

For one data set, the system named is atheromatous plaques. Briefly: Aortic binding, ex vivo autoradiography, euthanasia after 180 minutes. The class given is in vivo, rabbit. As to conditions: 180 minutes after injection. The protocol: (§1) Samples of blood were taken 1, 2, 5, 10, 15, 20, 25 and 30 minutes after injection of the tracers. The animals were euthanased 30 minutes (examples 2, 3 and 4) or 180 minutes (examples 5 and 6) after injection of the labelled VCAM-1 ligands. Samples of the principal organs were taken. These samples, as well as the blood samples taken, were counted for the radioactivity which they contain. The dorsal aorta, the aortic arch and the ventral aorta were also sampled and immediately placed in 10% formalin. A portion of ventral aorta was placed for 24 hours in 3.7% formaldehyde for subsequent inclusion in paraffin and verification by immunohistology of the presence of VCAM-1.
The dorsal and ventral aortas were placed in contact with a high-resolution phosphorus screen (Fujifilm 08SR2025) in darkness for 18 hours. The screen was then scanned (phosphoimager Fujifilm BAS 5000) and the images of the distribution of the labelled VCAM-1 ligands on the aortas of healthy or hyperlipidemic animals were quantified with the aid of the Scion Image Beta software available on the National Institute of Health internet site. […]
The tracers ^123I-B2702.84-75 and ^99mTc-B2702.84-75 were evaluated according to the same methodology as was used for Examples 3 and 4, except that the animals were euthanased 180 minutes (30 minutes previously) after the injection of the tracers. […]

Data set [1] can be described thus: Blood kinetics up to 180 minutes after injection. The class given is in vivo, rabbit. Particulars: 180 minutes after the injection. The protocol: (§2) The tracers ^123I-B2702.84-75 and ^99mTc-B2702.84-75 were evaluated according to the same methodology as was used for Examples 3 and 4, except that the animals were euthanased 180 minutes (30 minutes previously) after the injection of the tracers.
The blood samples for measuring the circulatory tracer activity were taken 1, 2, 5, 10, 20, 25, 30, 60, 120 and 180 minutes after the injection. 180 minutes after the injection, the circulatory activity of ^123I-B2702.84-75 and ^99mTc-B2702.84-75 represents respectively 30% and 15% of the initial activity. It will be recalled that the circulatory activity of ^125I-B2702.84-75 represented approximately 40% of the initial activity 30 minutes after the injection in the experiments described in Example 3.

Data set [2] is described as follows: Biodistribution 180 minutes after the injection. Particulars: rabbit, iv, total radioactivity. Type of data set: in vivo. The protocol: as §1, §2
The binding values are expressed as a percentage of the injected dose per gram of organ (% ID/g).

The target in another data set is T1, VCAM-1 (Homo sapiens, UniProt P19320).
T1 sequence (P19320 25-739): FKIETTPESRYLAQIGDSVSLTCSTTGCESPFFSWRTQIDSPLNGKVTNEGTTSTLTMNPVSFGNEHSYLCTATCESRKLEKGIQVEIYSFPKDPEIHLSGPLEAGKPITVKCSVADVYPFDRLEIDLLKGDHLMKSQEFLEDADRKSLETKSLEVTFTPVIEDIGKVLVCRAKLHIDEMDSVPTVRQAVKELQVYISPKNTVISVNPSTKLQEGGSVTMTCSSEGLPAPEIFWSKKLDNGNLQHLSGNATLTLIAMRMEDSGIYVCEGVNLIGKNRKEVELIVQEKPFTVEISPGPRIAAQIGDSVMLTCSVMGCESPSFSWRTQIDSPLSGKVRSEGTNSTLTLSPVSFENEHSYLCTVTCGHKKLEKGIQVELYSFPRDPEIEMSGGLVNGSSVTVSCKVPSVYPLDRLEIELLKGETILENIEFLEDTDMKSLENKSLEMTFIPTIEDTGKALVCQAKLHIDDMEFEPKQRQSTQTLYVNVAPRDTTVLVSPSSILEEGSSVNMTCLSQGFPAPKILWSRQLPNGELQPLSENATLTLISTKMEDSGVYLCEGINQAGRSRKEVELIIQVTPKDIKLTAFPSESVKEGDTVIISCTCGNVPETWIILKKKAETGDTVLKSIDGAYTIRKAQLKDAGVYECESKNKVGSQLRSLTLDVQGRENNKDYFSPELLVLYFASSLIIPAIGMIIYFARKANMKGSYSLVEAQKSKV
Particulars: as shown by Ling et al. (2000); cited from earlier work.

Where two headings read alike, the source gives them in different places. Where a SMILES comes first, the peptide text is derived from it. [ ]: non-standard residue; d: D form. Tyr(3-I) = N[C@@H](Cc1ccc(O)c(I)c1)C(=O)O

For `CC[C@H](C)[C@H](NC(=O)[C@H](C)NC(=O)[C@H](CC(C)C)NC(=O)[C@H](CCCNC(=N)N)NC(=O)[C@@H](N)Cc1ccc(O)c(I)c1)C(=O)N[C@@H](CCCNC(=N)N)C(=O)N[C@@H](CC(C)C)C(=O)N[C@@H](CC(N)=O)C(=O)N[C@@H](CCC(=O)O)C(=O)N[C@@H](CCCNC(=N)N)C(=O)O` [^123I-B2702.84-75] (H-[Tyr(3-I)]RLAIRLNER-OH; N-terminus and C-terminus assumed), the “binding on atheromatous plaques of WHHL animals relative to aortas of control animals” value in the data set on atheromatous plaques worked out at 17.0 times. Moreover, the “binding ratio atheromatous plaque / normal aortic zone” value in the data set on atheromatous plaques (WHHL animals) came to 4.0. The “circulatory activity, of the initial activity” value in data set [1] worked out at 30%. The tissue uptake at 3 h in data set [2] (aorta, Control rabbits (n = 3), read-out: Biodistribution, Aorta) is 0.011 ± 0.004 %ID/g; in data set [2] (aorta, WHHL rabbits (n = 3), read-out: Biodistribution, Aorta), 0.034 ± 0.012 %ID/g; in data set [2] (blood, Control rabbits (n = 3), read-out: Biodistribution, Blood), 0.19 ± 0.038 %ID/g; in data set [2] (blood, WHHL rabbits (n = 3), read-out: Biodistribution, Blood), 0.161 ± 0.048 %ID/g; in data set [2] (fat, Control rabbits (n = 3), read-out: Biodistribution, Fat), 0.011 ± 0.001 %ID/g; in data set [2] (fat, WHHL rabbits (n = 3), read-out: Biodistribution, Fat), 0.015 ± 0.006 %ID/g. Further, the tissue uptake at 3 h came out at 0.088 ± 0.017 %ID/g in data set [2] (heart, Control rabbits (n = 3), read-out: Biodistribution, Heart); 0.088 ± 0.031 %ID/g in data set [2] (heart, WHHL rabbits (n = 3), read-out: Biodistribution, Heart); 0.307 ± 0.052 %ID/g in data set [2] (kidney, Control rabbits (n = 3), read-out: Biodistribution, Kidney); 0.49 ± 0.184 %ID/g in data set [2] (kidney, WHHL rabbits (n = 3), read-out: Biodistribution, Kidney); 0.086 ± 0.025 %ID/g in data set [2] (liver, Control rabbits (n = 3), read-out: Biodistribution, Liver); 0.096 ± 0.029 %ID/g in data set [2] (liver, WHHL rabbits (n = 3), read-out: Biodistribution, Liver). The tissue uptake at 3 h in data set [2] (lung, Control rabbits (n = 3), read-out: Biodistribution, Lung) worked out at 0.138 ± 0.028 %ID/g; in data set [2] (lung, WHHL rabbits (n = 3), read-out: Biodistribution, Lung) it was 0.163 ± 0.044 %ID/g; in data set [2] (muscle, Control rabbits (n = 3), read-out: Biodistribution, Muscle) it was 0.028 ± 0.003 %ID/g; in data set [2] (muscle, WHHL rabbits (n = 3), read-out: Biodistribution, Muscle), 0.026 ± 0.009 %ID/g; in data set [2] (spleen, Control rabbits (n = 3), read-out: Biodistribution, Spleen), 0.076 ± 0.015 %ID/g; in data set [2] (spleen, WHHL rabbits (n = 3), read-out: Biodistribution, Spleen), 0.089 ± 0.029 %ID/g. The tissue uptake at 3 h in data set [2] (stomach, Control rabbits (n = 3), read-out: Biodistribution, Stomach) was found to be 0.095 ± 0.025 %ID/g; in data set [2] (stomach, WHHL rabbits (n = 3), read-out: Biodistribution, Stomach), 0.114 ± 0.04 %ID/g.
In the case of “B2702.84-75/75-84: peptide of sequence YRLAIRLNERRENLRIALRY (SEQ ID no 2), inverse dimer of residues 84-75/75-84 of HLA-B2702 (listed as Homo sapiens)”, the “binding to VCAM-1” value with VCAM-1 is recorded as “bind specifically to VCAM-1”.
